# ChEMBL document CHEMBL1140277, “Antibiotics GE23077, novel inhibitors of bacterial RNA polymerase. Part 3: Chemical derivatization” (Bioorg Med Chem Lett, 2005)
# Numbered stars: 1 amine (or outer) side, 2 acyl side, 3 side chain; on linkers, the order of the positions; unused ones are H or OH. Square brackets hold non-standard residues; d marks the D form. Peptide text beside a SMILES is read from it. * marks the point of attachment. ξ: configuration not given here. ξGln(3,4-(OH)2) = NC(=O)C(O)C(O)C(N)C(=O)O; isoSer(2S) = O=C([C@@H](O)CN[*:1])[*:2]; ξAllylGly = C=CCC(N)C(=O)O; X1 = CC(NCc1ccccc1)C(=O)*; ξE = NC(CCC(=O)O)C(=O)O; Dap = NC[C@H](N)C(=O)O; X2 = C/C=C(/C)C(=O)*
# How the values were obtained:
# [1] = Minimum inhibitory concentration against Moraxella catarrhalis using broth microdilution method; format: functional
# [2] = Inhibitory concentration against RNA polymerase from Escherichia coli using cell freei transcription assay; format: functional
Structure (SMILES),MIC [1] [µg/mL],IC50 [2] [µg/mL]
CCCCCCC(CCCC)C(=O)NC(C)C(=O)NC[C@@H]1NC(=O)C(C(=O)O)NC(=O)[C@@H](O)CNC(=O)[C@H]([C@@H](C)O)NC(=O)C(C(O)C(O)C(N)=O)NC(=O)[C@H](C(C)C)NC(=O)[C@H](CO)NC1=O (some centres undefined),512,0.13
CCCCCCCCCCCCCCCCCC(=O)NC(C)C(=O)NC[C@@H]1NC(=O)[C@@H](C(=O)O)NC(=O)[C@@H](O)CNC(=O)[C@H]([C@@H](C)O)NC(=O)C(C(O)C(O)C(N)=O)NC(=O)[C@H](C(C)C)NC(=O)[C@H](CO)NC1=O (some centres undefined),> 512,0.57
C=CCOC(=O)C1NC(=O)[C@@H](O)CNC(=O)[C@H]([C@@H](C)O)NC(=O)C(C(O)C(O)C(N)=O)NC(=O)[C@H](C(C)C)NC(=O)[C@H](CO)NC(=O)[C@H](CNC(=O)/C(C)=C\C)NC1=O (some centres undefined),–,0.4
"C/C=C(/C)C(=O)NC[C@@H]1NC(=O)CNC(=O)[C@@H](O)CNC(=O)[C@H]([C@@H](C)O)NC(=O)C(C(O)C(O)C(N)=O)NC(=O)[C@H](C(C)C)NC(=O)[C@H](CO)NC1=O (stereo partly drawn) (cyclo([Dap](X2)SV[ξGln(3,4-(OH)2)]T[isoSer(2S)]G))",16,0.65
C/C=C(/C)C(=O)NC[C@@H]1NC(=O)C(C(=O)OC)NC(=O)[C@@H](O)CNC(=O)[C@H]([C@@H](C)O)NC(=O)C(C(O)C(O)CNC(=O)/C=C/c2ccccc2)NC(=O)[C@H](C(C)C)NC(=O)[C@H](CO)NC1=O (some centres undefined),> 512,> 3.2
C/C=C(/C)C(=O)NC[C@@H]1NC(=O)C(C(=O)N[C@@H](C)C(=O)N[C@@H](C)C(=O)OC)NC(=O)[C@@H](O)CNC(=O)[C@H]([C@@H](C)O)NC(=O)C(C(O)C(O)C(N)=O)NC(=O)[C@H](C(C)C)NC(=O)[C@H](CO)NC1=O (some centres undefined),64,> 3.2
CCCCCCCCC(=O)NC(C)C(=O)NC[C@@H]1NC(=O)C(C(=O)O)NC(=O)[C@@H](O)CNC(=O)[C@H]([C@@H](C)O)NC(=O)C(C(O)C(O)C(N)=O)NC(=O)[C@H](C(C)C)NC(=O)[C@H](CO)NC1=O (some centres undefined),256,0.09
C/C=C(/C)C(=O)NC[C@@H]1NC(=O)C(C(=O)NC(Cc2ccc(O)cc2)C(=O)O)NC(=O)[C@@H](O)CNC(=O)[C@H]([C@@H](C)O)NC(=O)C(C(O)C(O)C(N)=O)NC(=O)[C@H](C(C)C)NC(=O)[C@H](CO)NC1=O (some centres undefined),512,–
"C/C=C(/C)C(=O)NC[C@@H]1NC(=O)C(CCC(=O)O)NC(=O)[C@@H](O)CNC(=O)[C@H]([C@@H](C)O)NC(=O)C(C(O)C(O)C(N)=O)NC(=O)[C@H](C(C)C)NC(=O)[C@H](CO)NC1=O (stereo partly drawn) (cyclo([Dap](X2)SV[ξGln(3,4-(OH)2)]T[isoSer(2S)][ξE]))",8,0.2
C/C=C(/C)C(=O)NC[C@@H]1NC(=O)C(C(=O)OC)NC(=O)[C@@H](O)CNC(=O)[C@H]([C@@H](C)O)NC(=O)C(C(O)C(O)C(N)=O)NC(=O)[C@H](C(C)C)NC(=O)[C@H](CO)NC1=O (some centres undefined),8,0.15
C/C=C(/C)C(=O)NC[C@@H]1NC(=O)C(C(=O)OC)NC(=O)[C@@H](O)CNC(=O)[C@H]([C@@H](C)O)NC(=O)C(C(O)C(O)CN)NC(=O)[C@H](C(C)C)NC(=O)[C@H](CO)NC1=O (some centres undefined),32,3.14
C/C=C(/C)C(=O)NC[C@@H]1NC(=O)[C@@H](C(=O)O)NC(=O)[C@@H](O)CNC(=O)[C@H]([C@@H](C)O)NC(=O)C(C(O)C(O)C(N)=O)NC(=O)[C@H](C(C)C)NC(=O)[C@H](CO)NC1=O (some centres undefined),8,0.03
"C=CCC1NC(=O)[C@@H](O)CNC(=O)[C@H]([C@@H](C)O)NC(=O)C(C(O)C(O)C(N)=O)NC(=O)[C@H](C(C)C)NC(=O)[C@H](CO)NC(=O)[C@H](CNC(=O)/C(C)=C\C)NC1=O (stereo partly drawn) (cyclo([Dap](X2)SV[ξGln(3,4-(OH)2)]T[isoSer(2S)][ξAllylGly]))",32,2.24
C/C=C(/C)C(=O)NC[C@@H]1NC(=O)C(C(=O)OC)NC(=O)[C@@H](O)CNC(=O)[C@H]([C@@H](C)O)NC(=O)C(C(O)C(O)CNC(=O)Cc2ccc(-c3ccccc3)cc2)NC(=O)[C@H](C(C)C)NC(=O)[C@H](CO)NC1=O (some centres undefined),> 512,> 3.2
C/C=C(/C)C(=O)NC[C@@H]1NC(=O)C(C(=O)NCc2ccccc2)NC(=O)[C@@H](O)CNC(=O)[C@H]([C@@H](C)O)NC(=O)C(C(O)C(O)C(N)=O)NC(=O)[C@H](C(C)C)NC(=O)[C@H](CO)NC1=O (some centres undefined),128,0.3
C/C=C(/C)C(=O)NC[C@@H]1NC(=O)C(C(=O)OC)NC(=O)[C@@H](O)CNC(=O)[C@H]([C@@H](C)O)NC(=O)C(C(O)C(O)CNC(=O)C(CCCC)CCCCCC)NC(=O)[C@H](C(C)C)NC(=O)[C@H](CO)NC1=O (some centres undefined),> 512,> 3.2
C/C=C(/C)C(=O)NC[C@@H]1NC(=O)C(C(=O)N(C)OC)NC(=O)[C@@H](O)CNC(=O)[C@H]([C@@H](C)O)NC(=O)C(C(O)C(O)C(N)=O)NC(=O)[C@H](C(C)C)NC(=O)[C@H](CO)NC1=O (some centres undefined),–,0.4
C/C=C(/C)C(=O)NC[C@@H]1NC(=O)C(C(=O)OCC)NC(=O)[C@@H](O)CNC(=O)[C@H]([C@@H](C)O)NC(=O)C(C(O)C(O)C(N)=O)NC(=O)[C@H](C(C)C)NC(=O)[C@H](CO)NC1=O (some centres undefined),64,0.1
CC(=O)C(=O)NC[C@@H]1NC(=O)C(C(=O)O)NC(=O)[C@@H](O)CNC(=O)[C@H]([C@@H](C)O)NC(=O)C(C(O)C(O)C(N)=O)NC(=O)[C@H](C(C)C)NC(=O)[C@H](CO)NC1=O (some centres undefined),8,0.07

# Other lines, results leading:
MIC [1] [µg/mL],IC50 [2] [µg/mL],Structure (SMILES)
64,0.28,CC(N)C(=O)NC[C@@H]1NC(=O)C(C(=O)O)NC(=O)[C@@H](O)CNC(=O)[C@H]([C@@H](C)O)NC(=O)C(C(O)C(O)C(N)=O)NC(=O)[C@H](C(C)C)NC(=O)[C@H](CO)NC1=O (some centres undefined)
512,0.24,CC(NCc1cc(C(F)(F)F)cc(C(F)(F)F)c1)C(=O)NC[C@@H]1NC(=O)C(C(=O)O)NC(=O)[C@@H](O)CNC(=O)[C@H]([C@@H](C)O)NC(=O)C(C(O)C(O)C(N)=O)NC(=O)[C@H](C(C)C)NC(=O)[C@H](CO)NC1=O (some centres undefined)
128,1.05,"CC(NCc1ccccc1)C(=O)NC[C@@H]1NC(=O)CNC(=O)[C@@H](O)CNC(=O)[C@H]([C@@H](C)O)NC(=O)C(C(O)C(O)C(N)=O)NC(=O)[C@H](C(C)C)NC(=O)[C@H](CO)NC1=O (stereo partly drawn) (cyclo([Dap](X1)SV[ξGln(3,4-(OH)2)]T[isoSer(2S)]G))"
> 512,0.17,CC(NCC(F)(F)F)C(=O)NC[C@@H]1NC(=O)C(C(=O)O)NC(=O)[C@@H](O)CNC(=O)[C@H]([C@@H](C)O)NC(=O)C(C(O)C(O)C(N)=O)NC(=O)[C@H](C(C)C)NC(=O)[C@H](CO)NC1=O (some centres undefined)
> 512,0.22,CC(NC(=O)Cc1ccc(-c2ccccc2)cc1)C(=O)NC[C@@H]1NC(=O)C(C(=O)O)NC(=O)[C@@H](O)CNC(=O)[C@H]([C@@H](C)O)NC(=O)C(C(O)C(O)C(N)=O)NC(=O)[C@H](C(C)C)NC(=O)[C@H](CO)NC1=O (some centres undefined)
> 512,0.07,CCCCCCCCc1ccc(C(=O)NC(C)C(=O)NC[C@@H]2NC(=O)C(C(=O)O)NC(=O)[C@@H](O)CNC(=O)[C@H]([C@@H](C)O)NC(=O)C(C(O)C(O)C(N)=O)NC(=O)[C@H](C(C)C)NC(=O)[C@H](CO)NC2=O)cc1 (some centres undefined)
16,0.42,CC(NCC1CCCCC1)C(=O)NC[C@@H]1NC(=O)C(C(=O)O)NC(=O)[C@@H](O)CNC(=O)[C@H]([C@@H](C)O)NC(=O)C(C(O)C(O)C(N)=O)NC(=O)[C@H](C(C)C)NC(=O)[C@H](CO)NC1=O (some centres undefined)
64,0.11,CC(O)C(=O)NC[C@@H]1NC(=O)C(C(=O)O)NC(=O)[C@@H](O)CNC(=O)[C@H]([C@@H](C)O)NC(=O)C(C(O)C(O)C(N)=O)NC(=O)[C@H](C(C)C)NC(=O)[C@H](CO)NC1=O (some centres undefined)
32,0.07,CC(NCc1ccccc1)C(=O)NC[C@@H]1NC(=O)C(C(=O)O)NC(=O)[C@@H](O)CNC(=O)[C@H]([C@@H](C)O)NC(=O)C(C(O)C(O)C(N)=O)NC(=O)[C@H](C(C)C)NC(=O)[C@H](CO)NC1=O (some centres undefined)
64,0.06,CC(NCc1cc(F)c(F)c(F)c1)C(=O)NC[C@@H]1NC(=O)C(C(=O)O)NC(=O)[C@@H](O)CNC(=O)[C@H]([C@@H](C)O)NC(=O)C(C(O)C(O)C(N)=O)NC(=O)[C@H](C(C)C)NC(=O)[C@H](CO)NC1=O (some centres undefined)
256,0.05,CC(NCc1ccc(C(F)(F)F)cc1)C(=O)NC[C@@H]1NC(=O)C(C(=O)O)NC(=O)[C@@H](O)CNC(=O)[C@H]([C@@H](C)O)NC(=O)C(C(O)C(O)C(N)=O)NC(=O)[C@H](C(C)C)NC(=O)[C@H](CO)NC1=O (some centres undefined)
128,0.08,CC(NC(=O)/C=C/c1ccccc1)C(=O)NC[C@@H]1NC(=O)C(C(=O)O)NC(=O)[C@@H](O)CNC(=O)[C@H]([C@@H](C)O)NC(=O)C(C(O)C(O)C(N)=O)NC(=O)[C@H](C(C)C)NC(=O)[C@H](CO)NC1=O (some centres undefined)
